Key:
P56W CaFADS = molecular target: T1, P56W CaFADS (Corynebacterium ammoniagenes, UniProt Q59263, P56W); assay: Isothermal titration calorimetry (ITC) of ligand binding at the FMNAT site; conditions: for -TΔS / ΔH / ΔG: P56W CaFADS, 20 mM PIPES
T1 construct: made in house; host or cells: E. coli BL21(DE3)

L98A CaFADS = molecular target: T2, L98A CaFADS (Corynebacterium ammoniagenes, UniProt Q59263, L98A); assay: as above; conditions: 20 mM PIPES
T2 construct: made in house; host or cells: E. coli BL21(DE3)

WT CaFADS [1] = molecular target: T3, WT CaFADS (Corynebacterium ammoniagenes, UniProt Q59263); assay: as above; conditions: 20 mM PIPES
T3 construct: made in house; host or cells: Escherichia coli

WT CaFADS [2] = molecular target: T3, WT CaFADS; conditions: cited from earlier work
P56A/P58A CaFADS = molecular target: T4, P56A/P58A CaFADS (Corynebacterium ammoniagenes, UniProt Q59263, P56A/P58A); assay: Isothermal titration calorimetry (ITC) of ligand binding at the FMNAT site; conditions: 20 mM PIPES
T4 construct: made in house; host or cells: E. coli BL21(DE3)

P58W CaFADS = molecular target: T5, P58W CaFADS (Corynebacterium ammoniagenes, UniProt Q59263, P58W); assay: as above; conditions: 20 mM PIPES
T5 construct: made in house; host or cells: E. coli BL21(DE3)

L98W CaFADS = molecular target: T6, L98W CaFADS (Corynebacterium ammoniagenes, UniProt Q59263, L98W); assay: as above; conditions: 20 mM PIPES
T6 construct: made in house; host or cells: E. coli BL21(DE3)

L98K CaFADS = molecular target: T7, L98K CaFADS (Corynebacterium ammoniagenes, UniProt Q59263, L98K); assay: as above; conditions: 20 mM PIPES, pH 7.0, no MgCl2
T7 construct: made in house; host or cells: E. coli BL21(DE3)

CaFADS variants [3] = assay: Difference spectroscopy of flavin binding at the FMNAT site; parameters: species or system Corynebacterium ammoniagenes; conditions: all variants, 20 mM PIPES, 10 mM MgCl2, pH 7.0, 25 °C
Description: Spectroscopic measurements were carried out following previously established conditions and protocols. UV–visible absorption spectra were recorded in a Cary 100 spectrophotometer (Agilent Technologies, Santa Clara, CA, USA). Experimental extinction coefficients at 279 nm (ε^279) for each variant were determined based on the Gill and von Hippel method. In short, the UV–visible absorbance spectrum of the protein was recorded. Then samples were denatured with guanidinium hydrochloride (6 M in 20 mM sodium phosphate, pH 6.5). Then, the absorbance spectrum of the denatured sample was recorded and its concentration was calculated considering the theoretical extinction coefficient determined using the amino acid sequence. This concentration, taking into account the protein dilution in the denaturation process, was then used to determine ε^279 at the protein maximum by using the native protein spectrum before denaturation. Difference spectroscopy measurements were carried out in 20 mM PIPES, 10 mM MgCl2, pH 7.0, with saturating concentrations of ligands. Circular dichroism (CD) spectra were recorded using a Chirascan spectropolarimeter (Appl. Phot. Ltd., Leatherhead, Surrey, UK) at 25 °C. […]

CaFADS variants [4] = assay: Qualitative detection of RFK, FMNAT and FADpp activities by TLC; format: biochemical, Corynebacterium ammoniagenes; conditions: all variants, 200 nM enzyme, 50 μM flavin, 0.2 mM ATP, 10 mM MgCl2, pH 7.0, 30 min and 2 h
Description: RFK and FMNAT activities were qualitatively assayed by the incubation of enzymes with substrates and separation of flavins (substrates and products) from reaction mixtures using TLC on Silica Gel SIL-G-25 plates (20 × 20 cm, thickness 0.25 mm) as previously described. […] Reactions were stopped by boiling the preparations for 5 min. Flavin spots were visualized under UV light.

[5] = tested on: Cc1cc2nc3c(=O)[nH]c(=O)nc-3n(C[C@H](O)[C@H](O)[C@H](O)CO)c2cc1C; assay: purified protein, by the assay type; format: biochemical, Corynebacterium ammoniagenes; conditions: RF varied, saturating ATP, apparent value, 20 mM PIPES, 0.8 mM MgCl2, pH 7.0, 25 °C
Description: Reactions were initiated by the addition of ~20 nM of enzyme. After 1 min incubation at 25 °C, the reactions were stopped by boiling the mixtures for 5 min. The composition of flavins in the supernatant was determined using an Alliance HPLC system (Waters, Milford, MA, USA) equipped with a 2707 autosampler and a HSST3 column (4.6 × 150 mm, 3.5 µm, Waters) preceded by a pre-column (4.6 × 20 mm, 3.5 µm, Waters). The chromatography was developed at 1 mL/min with a 6 min isocratic program of methanol 40% (v/v) in 5 mM ammonium acetate (pH 6.0). Detection of flavins was carried out using a 2475 Multi λ fluorescence detector (Waters), excitation wavelength of 470 nm and emission wavelength of 530 nm. […] The flavinic products of the reaction were identified by their retention times and quantified through their corresponding standard curves obtained under the same conditions. Controls containing free flavins in the absence of the enzyme were treated similarly to reaction samples to discard flavin degradation during RFK activity determination. […] In case of inhibition, the experimental data were fitted to a model describing the substrate inhibition of a bi-substrate mechanism. In these situations, errors in apparent Km and kcat (^appKm and ^appkcat) increased with the inhibition constant (Ki) value getting closer to Km^S. Reaction mixtures were evaluated in triplicates, and final results are expressed as the standard error of the fitted value (value ± SE).

[6] = 10 mM MgCl2, pH 7.0, n.d. = no interaction profile was detected

Nc1ncnc2c1ncn2[C@@H]1O[C@H](COP(=O)(O)OP(=O)(O)OP(=O)(O)O)[C@@H](O)[C@H]1O [ATP, Adenosine 5′-triphosphate]
-TΔS (P56W CaFADS; pH 7.0, no MgCl2): 11 ± 2 kcal/mol | ΔH (P56W CaFADS; pH 7.0, no MgCl2): -16 ± 3 kcal/mol | -TΔS (L98A CaFADS; pH 7.0, no MgCl2): 15 ± 2 kcal/mol | ΔG (L98A CaFADS; pH 7.0, no MgCl2): -5.6 ± 0.1 kcal/mol | ΔH (L98A CaFADS; pH 7.0, no MgCl2): -20 ± 3 kcal/mol | -TΔS (WT CaFADS [1]; pH 7.0, no MgCl2): 39 ± 6 kcal/mol | ΔH (WT CaFADS [1]; pH 7.0, no MgCl2): -44 ± 6 kcal/mol | kcat (WT CaFADS [2]; ATP varied, RF at ~80% of maximum activity, apparent value, 20 mM PIPES, 0.8 mM MgCl2, pH 7.0, 25 °C): 2.58 ± 0.083 s⁻¹ | Km (WT CaFADS [2]; read-out: Km^ATP, ATP varied, RF at ~80% of maximum activity, 20 mM PIPES, 0.8 mM MgCl2, pH 7.0, 25 °C): 28 ± 4 µM | -TΔS (P56A/P58A CaFADS; pH 7.0, no MgCl2): -3.6 ± 0.2 kcal/mol | ΔG (P56A/P58A CaFADS; pH 7.0, no MgCl2): -6.4 ± 0.1 kcal/mol | ΔH (P56A/P58A CaFADS; pH 7.0, no MgCl2): -2.8 ± 0.2 kcal/mol | -TΔS (P58W CaFADS; pH 7.0, no MgCl2): -3.8 ± 0.1 kcal/mol | ΔG (P58W CaFADS; pH 7.0, no MgCl2): -6.5 ± 0.1 kcal/mol | ΔH (P58W CaFADS; pH 7.0, no MgCl2): -2.7 ± 0.1 kcal/mol | -TΔS (L98W CaFADS; pH 7.0, no MgCl2): 26 ± 6 kcal/mol | ΔH (L98W CaFADS; pH 7.0, no MgCl2): -32 ± 6 kcal/mol | -TΔS (L98K CaFADS): 33 ± 19 kcal/mol | ΔG (L98K CaFADS): -5.6 ± 0.2 kcal/mol | ΔH (L98K CaFADS): -39 ± 19 kcal/mol

Cc1cc2nc3c(=O)[nH]c(=O)nc-3n(C[C@H](O)[C@H](O)[C@H](O)COP(=O)(O)OP(=O)(O)OC[C@H]3O[C@@H](n4cnc5c(N)ncnc54)[C@H](O)[C@@H]3O)c2cc1C [FAD, Riboflavin 5′-adenosine diphosphate]
-TΔS (P56W CaFADS; 10 mM MgCl2, pH 7.0): -6.1 ± 0.1 kcal/mol | ΔG (P56W CaFADS; 10 mM MgCl2, pH 7.0): -6.9 ± 0.1 kcal/mol | ΔH (P56W CaFADS; 10 mM MgCl2, pH 7.0): -0.9 ± 0.1 kcal/mol | -TΔS (WT CaFADS [1]; 10 mM MgCl2, pH 7.0): 18 ± 1 kcal/mol | ΔH (WT CaFADS [1]; 10 mM MgCl2, pH 7.0): -26 ± 1 kcal/mol | -TΔS (P56A/P58A CaFADS; 10 mM MgCl2, pH 7.0): -7.4 ± 0.1 kcal/mol | ΔG (P56A/P58A CaFADS; 10 mM MgCl2, pH 7.0): -7.8 ± 0.1 kcal/mol | ΔH (P56A/P58A CaFADS; 10 mM MgCl2, pH 7.0): -0.39 ± 0.1 kcal/mol | difference spectra on titration with FAD (CaFADS variants [3]; saturating FAD): hardly produced difference spectra | -TΔS (P58W CaFADS; 10 mM MgCl2, pH 7.0): -7.0 ± 0.1 kcal/mol | ΔG (P58W CaFADS; 10 mM MgCl2, pH 7.0): -7.6 ± 0.1 kcal/mol | ΔH (P58W CaFADS; 10 mM MgCl2, pH 7.0): -0.56 ± 0.02 kcal/mol | -TΔS (L98W CaFADS; 10 mM MgCl2, pH 7.0): -6.9 ± 0.1 kcal/mol | ΔG (L98W CaFADS; 10 mM MgCl2, pH 7.0): -7.4 ± 0.1 kcal/mol | ΔH (L98W CaFADS; 10 mM MgCl2, pH 7.0): -0.6 ± 0.1 kcal/mol

Cc1cc2nc3c(=O)[nH]c(=O)nc-3n(C[C@H](O)[C@H](O)[C@H](O)COP(=O)(O)O)c2cc1C [FMN, Riboflavin 5′-phosphate]
Kd^FMN lower than WT (P56W CaFADS; P56W CaFADS vs WT): up to 4 fold | -TΔS (P56W CaFADS; 10 mM MgCl2, pH 7.0): -6.5 ± 0.1 kcal/mol | ΔG (P56W CaFADS; 10 mM MgCl2, pH 7.0): -7.9 ± 0.1 kcal/mol | ΔH (P56W CaFADS; 10 mM MgCl2, pH 7.0): -1.4 ± 0.1 kcal/mol | -TΔS (L98A CaFADS; [6]): -7.9 ± 0.1 kcal/mol | ΔG (L98A CaFADS; [6]): -9.0 ± 0.1 kcal/mol | ΔH (L98A CaFADS; [6]): -1.2 ± 0.1 kcal/mol | -TΔS (WT CaFADS [1]; 10 mM MgCl2, pH 7.0): 15 ± 1 kcal/mol | ΔH (WT CaFADS [1]; 10 mM MgCl2, pH 7.0): -22 ± 1 kcal/mol | FMNAT activity (transformation of FMN into FAD), qualitative (CaFADS variants [4]): none of the variants was neither capable of catalyzing the transformation of FMN into FAD | ΔG (P56A/P58A CaFADS; 10 mM MgCl2, pH 7.0): -8.8 ± 0.1 kcal/mol | ΔH (P56A/P58A CaFADS; 10 mM MgCl2, pH 7.0): -1.8 ± 0.1 kcal/mol | difference spectra after incubation with FMN (CaFADS variants [3]; saturating FMN): All the variants produced difference spectra | -TΔS (P58W CaFADS; 10 mM MgCl2, pH 7.0): -7.3 ± 0.1 kcal/mol | ΔG (P58W CaFADS; 10 mM MgCl2, pH 7.0): -8.6 ± 0.1 kcal/mol | ΔH (P58W CaFADS; 10 mM MgCl2, pH 7.0): -1.3 ± 0.1 kcal/mol | -TΔS (L98W CaFADS; 10 mM MgCl2, pH 7.0): -7.2 ± 0.1 kcal/mol | ΔG (L98W CaFADS; 10 mM MgCl2, pH 7.0): -8.7 ± 0.1 kcal/mol | ΔH (L98W CaFADS; 10 mM MgCl2, pH 7.0): -1.5 ± 0.1 kcal/mol

L98A CaFADS (Corynebacterium ammoniagenes; L98A)
Km ([5]; other: L98A CaFADS): 1.5 ± 0.7 µM

L98K CaFADS (Corynebacterium ammoniagenes; L98K)
Km ([5]; other: L98K CaFADS): 4.0 ± 1.1 µM

L98W CaFADS (Corynebacterium ammoniagenes; L98W)
Km ([5]; other: L98W CaFADS): 1.6 ± 0.6 µM

P56A/P58A CaFADS (Corynebacterium ammoniagenes; P56A/P58A)
Km ([5]; other: P56A/P58A CaFADS): 0.9 ± 0.4 µM

P56W CaFADS (Corynebacterium ammoniagenes; P56W)
Km ([5]; other: P56W CaFADS): 0.4 ± 0.1 µM

P58W CaFADS (Corynebacterium ammoniagenes; P58W)
Km ([5]; other: P58W CaFADS): 1.3 ± 0.7 µM

From article PMC6829536 (International Journal of Molecular Sciences, 2019)
